Experimental data from PubChem BioAssay (NCI).
Where “and” joins values, the source holds several entries; their conditions need not be identical. Equal values may be shown once.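 Grown in 96-well plates, cells were treated for 48 hours with each compound at five concentrations. Insufficient inhibition: endpoint recorded as highest concentration tested. GI50: concentration for 50% inhibition of growth. At the TGI there is no net growth.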

Key:
Test in all cases: growth of human tumour cells (NCI), 48 h
[1] = system: CCRF-CEM leukemia
[2] = system: M14 melanoma
[3] = system: SF-539 CNS
[4] = system: OVCAR-5 ovarian
[5] = system: SW-620 colon
[6] = system: MCF7 breast
[7] = system: OVCAR-8 ovarian
[8] = system: UACC-257 melanoma
[9] = system: ACHN renal
[10] = system: PC-3 prostate

Compound	GI50 [1]	TGI [1]	GI50 [2] [µM]	TGI [2] [µM]	GI50 [3] [µM]	TGI [3] [µM]	GI50 [4] [µM]	TGI [4] [µM]	GI50 [5] [µM]	TGI [5] [µM]	GI50 [6] [µM]	TGI [6] [µM]	GI50 [7] [µM]	TGI [7] [µM]	GI50 [8] [µM]	TGI [8] [µM]	GI50 [9] [µM]	TGI [9] [µM]	GI50 [10] [µM]	TGI [10] [µM]
OC(COc1cccc2ccccc12)CN1CCN(c2ccc(Cl)cc2)CC1 (stereo not given)	> 100 µM	> 100 µM	64.8	> 100	22.6	68.5	> 100	> 100	17.9	> 100	29.9	> 100	15.2	41	42.3	> 100	11.8	> 100	15.3	46.2
COc1cc(OC)cc(-c2ccc(-c3ccc(C(=N)N)s3)s2)c1	1.24 µM and 0.277 µM	2.9 µM and 0.75 µM	1.1	2.74	1.24	3.45	1.5	3.19	0.291	1.02	0.271	1.22	1.66	4.16	1.77	3.36	1.45	3.25	1.42	2.93
CC(N)(Cc1c[nH]c2ccccc12)C(=O)O (stereo not given)	> 2500 µM	> 2500 µM	> 2500	> 2500	> 2500	> 2500	> 2500	> 2500	> 2500	> 2500	> 2500	> 2500	> 2500	> 2500	> 2500	> 2500	> 2500	> 2500	> 2500	> 2500
Cc1ccc(Nc2[nH]c(C(=O)c3ccc(Cl)cc3)c(N)c2C(=S)Nc2ccccc2)nc1	38.1 µM	> 100 µM	77.8	> 100	19.9	44.8	33.1	> 100	32.7	> 100	33.1	> 100	22	97.3	33.3	> 100	31.9	> 100	26.5	> 100
